Values of other authors as cited in patent US7235556B2, “Methods of treating dry eye disorders” (Alcon, Inc., priority 2003, dated 2007).

System: allergic dermal inflammation
Settings: guinea pig model of eczema; reported in the background section

**Q.** For `CC(C)(C(=O)O)c1cn2nc(NCCCN3CCC(OC(c4ccccc4)c4ccccc4)CC3)ccc2n1.O.O` [TAK-427, 2-[6-[[3-[4-(diphenylmethoxy)piperidino]propyl]amino]imidazo[1,2-b]pyridazin-2-yl]2-methylpropionic acid dihydrate], which “inhibition of allergic dermal inflammation” value is on record?
**A.** The value was “inhibit allergic dermal inflammation”.
